Drawing on PubChem BioAssay AID651569 (Sanford-Burnham Center for Chemical Genomics, 2012), this text covers IC50 for 83 molecules.

What is called IC50 is the point on the concentration scale where inhibition reaches its midpoint.

The source made the active and inactive calls. No rule for the calls is given here.

The test deals with luminescent cytotoxicity (cell viability) counter-screen. As to the kind of experiment: cytotoxicity of Gli-SUFU antagonist hits, dose response, cytotoxicity control for Gli-SUFU antagonist project, cell-based, luminescence, uHTS hits (AID 651569).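 Also: compound exposure lasted overnight before the viability readout.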
As for `CCC(C)NS(=O)(=O)c1ccc(S(=O)(=O)N2CCCC3(CCCCC3)C2)cc1` (stereo not drawn), the IC50 was > 20 µM (inactive).

Consider `FC(F)Oc1ccc(-c2c[n+]3c(n2-c2ccccc2)CCCCC3)cc1`, for which the IC50 was > 20 µM (inactive).

As to `Cc1ccc(C)c(N2CC(O)(c3cccs3)[N+]3=C2CCCC3)c1` (stereo not drawn), the IC50 was > 20 µM (inactive). Then `O=C(NCCc1cccc(Cl)c1)c1ccc(OC2CCN(Cc3ccccn3)CC2)cc1`, with > 20 µM (inactive). Then `NC(=O)c1ccccc1OCC(=O)N1CCC(Cc2ccccc2)CC1`, with > 20 µM (inactive). Then `FC(F)(F)c1ccc(N2CCN(c3cc(-c4ccccc4)nc4ncnn34)CC2)nc1`, with > 20 µM (inactive); and `CCC(=O)c1ccc(OCC(O)Cn2c(C)nc3ccccc32)cc1` (stereo not drawn), with > 20 µM (inactive); and `CCCn1c2c(c(=N)c3c1CCC3)CCCC2`, with > 20 µM (inactive). On to `CCC(CC)CN1C(N(C)C)=NC[C@@H]1CC(C)C`, for which the IC50 is > 20 µM (inactive).

As for `O=C(C[C@H]1C/C=C\C[C@@H](NC(=O)OCC2c3ccccc3-c3ccccc32)C(=O)O[C@@H](c2ccccc2)CNC1=O)N[C@H](CO)Cc1ccccc1`, the IC50 is > 20 µM (inactive). The same measure for `COc1cccc(CN(C)C(=O)c2cc(COc3ccc4ncccc4c3)on2)c1`: > 20 µM (inactive). Turning to `O=C(Cn1cnc2ccccc21)Nc1cccc(S(=O)(=O)N2CCCC2)c1`, the IC50 was > 20 µM (inactive). The same measure for `O=C1N/C(=C\c2ccc(O)cc2)C(O)=C1C=NCc1ccccc1`: 4.41 µM. As for `CC(C)(C)[C@H]1COC(=O)[C@H](NC(=O)OCC2c3ccccc3-c3ccccc32)C/C=C\C[C@@H](CC(=O)N[C@@H](CO)Cc2ccccc2)C(=O)N1`, the IC50 was > 20 µM (inactive). With `COCCn1c(CN2CCC(Cc3ccccc3)CC2)nc2c1c(=O)n(C)c(=O)n2C`, the IC50 was > 20 µM (inactive).

As for `Brc1ccc(-c2csc(N3CCCCCC3)n2)cc1`, the IC50 was > 20 µM (inactive).

As to `CN1/C(=C\C(=O)COC(=O)CNC(=O)c2ccc3ccccc3c2)C(C)(C)c2ccccc21`, the IC50 was > 20 µM (inactive). For `Cc1sc2ncnc(NCc3cccs3)c2c1C`, the IC50 was > 20 µM (inactive). On to `CCn1c(=NC(=O)CS(=O)(=O)c2ccccc2)sc2cccc(OC)c21`, for which the IC50 was > 20 µM (inactive). In the case of `CC1CCC(NC(=O)c2cccc(S(=O)(=O)N3CCN(c4ccccc4)CC3)c2)CC1` (stereo not drawn), the IC50 was > 20 µM (inactive). As for `CC(C)(C)OC(=O)N1CCC(c2cc(-c3cccs3)n[nH]2)CC1`, the IC50 is > 20 µM (inactive). The same measure for `CCCn1c(SCC(=O)Nc2nc(-c3ccc(OC)cc3)cs2)nc2c1c(=O)n(C)c(=O)n2C`: > 20 µM (inactive). Take `Cc1cc(/C=C2/SC(=S)N(c3ccc([N+](=O)[O-])cc3)C2=O)c(C)n1-c1cccnc1`: the IC50 was > 20 µM (inactive). Then `CC(CC(=O)N1CCN(c2cccc(Cl)c2)CC1)S(=O)(=O)c1ccc2c(c1)NC(=O)CO2` (stereo not drawn), with > 20 µM (inactive); and `CCn1c(/C=C/Nc2ccccc2)[n+](CC)c2cc(Cl)c(Cl)cc21`, with 9.98 µM. Take `O=[N+]([O-])c1ccc(N2CCN(C(=S)NCc3ccc(Cl)cc3)CC2)cc1`: the IC50 is > 20 µM (inactive). Then `CC(C)(C)C1CCC(OC(=O)C[N+]2(C)CCCCC2)CC1` (stereo not drawn), with > 20 µM (inactive); and `CNc1nc(NCc2ccccc2)c2ccccc2n1`, with > 20 µM (inactive); and `CC[N+](C)(CC)CCC(c1ccccc1)C1CCCCC1` (stereo not drawn), with > 20 µM (inactive). The same measure for `c1ccc(C[n+]2cccc(-c3ccccc3)c2)cc1`: > 20 µM (inactive); for `Cc1nn(C)c(C)c1/C=C/C(=O)c1ccc(Cl)cc1Cl`: > 20 µM (inactive); for `CCOC(=O)c1c(NC(=O)COc2cccc3c2CCN(C)C3=O)sc2c1CCC2`: > 20 µM (inactive). The same measure for `CCn1c(=NC(=O)CCS(=O)(=O)c2ccccc2)sc2cccc(OC)c21`: > 20 µM (inactive); for `COc1ccccc1CN(Cc1nc2ccccc2c(=O)[nH]1)S(=O)(=O)c1ccc(C)cc1`: > 20 µM (inactive). `O=C(Nc1ccccc1)C1=C[C@@H](C2CCCCC2)C[C@@H](OCCCCO)O1`: the IC50 was > 20 µM (inactive). For `COc1ccc2c(c1)c(C)cc[n+]2Cc1ccccc1`, the IC50 was > 20 µM (inactive).

Consider `CC1CCN(c2c(NCc3ccc(C(=O)N4c5ccccc5CC4C)cc3)c(=O)c2=O)CC1` (stereo not drawn), for which the IC50 is > 20 µM (inactive). Then `O=C(N/N=C/c1cc2ccccc2nc1Cl)[C@H]1C[C@@H]1c1ccccc1`, with > 20 µM (inactive); and `CN(C)CCn1c2ccccc2c2nc3ccc([N+](=O)[O-])cc3cc21`, with > 20 µM (inactive); and `CN1/C(=C\C=N\NC(=O)c2ccc(O)cc2)C(C)(C)c2ccccc21`, with 4.84 µM. In the case of `CCOc1ccc(-c2nc(CSCC(=O)NCC3CCCO3)c(C)o2)cc1` (stereo not drawn), the IC50 is > 20 µM (inactive).

For the molecule `CC(=O)c1cccc(NS(=O)(=O)c2ccc(-c3cnc(C4CC4)o3)cc2)c1`, the half-maximal inhibitory concentration (IC50) was 6.78 µM. With `CC(C)CCOC(=O)C[N+](C)(C)CCOC1CC2CCC1(C)C2(C)C` (stereo not drawn), the IC50 was > 20 µM (inactive). Then `Fc1ccc(-n2nnnc2-c2cnc(-c3cccs3)nc2C(F)(F)F)cc1`, with 17 µM.

`Cc1nc2sccn2c1-c1csc(NCc2ccccc2)n1`: the IC50 is > 20 µM (inactive). The same measure for `Cn1c(=O)c2c(nc(NCCOc3ccc(C(C)(C)C)cc3)n2C)n(C)c1=O`: > 20 µM (inactive); for `Cc1cc(/C=N/n2cnnc2)c(C)n1-c1ccc(OCc2ccccc2F)cc1`: 16.3 µM; for `CCCOc1ccccc1N/C(=N/c1nc(C)cc(C)n1)NC(=O)COc1ccc(OC)cc1`: > 20 µM (inactive).

On to `COc1ccccc1-n1c(-c2ccccc2)c[n+]2c1CCc1ccccc1-2`, for which the IC50 is > 20 µM (inactive). The same measure for `CC(=O)c1ccc(-n2cc(-c3ccc(C(C)(C)C)cc3)[n+]3c2SCCC3)cc1`: > 20 µM (inactive); for `CCOC(=O)CC1CCCCN1C(=O)c1cc(COc2cccc3cnccc23)on1` (stereo not drawn): > 20 µM (inactive). The same measure for `COc1ccc(CCNc2ncnc3c2oc2ccccc23)cc1OC`: > 20 µM (inactive). With `CC1Sc2n(c3ccccc3[n+]2C)N=C1c1ccccc1` (stereo not drawn), the IC50 was > 20 µM (inactive). Then `O=C(c1cc2sccc2n1Cc1ccccc1)N1CCN(c2nc3ccccc3s2)CC1`, with > 20 µM (inactive); and `Cn1c(=O)c2c(nc(NCc3ccco3)n2Cc2ccc(Cl)cc2Cl)n(C)c1=O`, with > 20 µM (inactive); and `COc1ccccc1-c1c(-c2ccc(O)cc2O)n[nH]c1C(F)(F)F`, with > 20 µM (inactive). Then `CCOc1ccc(OCc2ccc(C(=O)NN=Cc3ccc[nH]3)cc2)cc1`, with 19.3 µM.

Consider `CCOC(=O)c1sc2nc(CC(=O)OC)nc(NCc3ccc(Cl)cc3)c2c1C`, for which the IC50 was > 20 µM (inactive). The same measure for `COc1ccc(CNc2cc(C)nc3ncnn23)c(OC)c1`: > 20 µM (inactive); for `COc1ccc(CNc2ncnc3c2[nH]c2ccccc23)cc1`: > 20 µM (inactive); for `COc1ccc(CN(C)C(=O)c2cccc(NC(=O)CC3SC(N4CCCCC4)=NC3=O)c2)c(OC)c1` (stereo not drawn): > 20 µM (inactive). Then `CC(=O)Nc1cccc(OCC(=O)/C=C2\N(C)c3ccccc3C2(C)C)c1`, with > 20 µM (inactive).

Take `C[n+]1c2n(c3ccccc31)N=C(c1ccccc1)CS2`: the IC50 was > 20 µM (inactive).

As for `CCc1ccc(CN(C)C(=O)c2cc(COc3cccc4cnccc34)on2)cc1`, the IC50 is > 20 µM (inactive). The same measure for `Cc1nc2ccccc2c2c1CC(C(C)(Cl)Br)O2` (stereo not drawn): > 20 µM (inactive).

`CCCCCCC[N+](CC)(CC)CCCCc1ccc(Cl)cc1`: the IC50 is > 20 µM (inactive). Then `CC(=O)Nc1ccc(S(=O)(=O)N(Cc2ccccc2)C(C)C)cc1`, with > 20 µM (inactive); and `CCOc1ccc(-n2c(O)c(/C=N/Nc3nc(C)cc(C)n3)c3ccccc3c2=O)cc1`, with > 20 µM (inactive). The same measure for `CC(=O)/C(=N\Nc1ccc(Cl)cc1Cl)Sc1cccc2cccnc12`: > 20 µM (inactive). For the molecule `C=CCOc1nc2c(c(=O)n(C)c(=O)n2C)n1Cc1ccc(Cl)cc1Cl`, the IC50 was > 20 µM (inactive).

Take `Clc1ccc(-c2cn(-c3ccc(Cl)cc3)c3[n+]2CCCCC3)cc1`: the IC50 was > 20 µM (inactive). Then `C[n+]1c2n(c3ccccc31)N=C(c1ccc(-c3ccccc3)cc1)CS2`, with > 20 µM (inactive); and `CCOc1ccc2[nH]c3c(N4CCN(C(=O)c5ccco5)CC4)ncnc3c2c1`, with > 20 µM (inactive).

Take `CCC(C)NC(=O)CCC(=O)OC1O[C@H]2OC3(C)CC[C@H]4[C@H](C)CCC(C1C)C24OO3` (stereo partly drawn): the IC50 was > 20 µM (inactive). Then `CN(Cc1ccc(OC(F)F)cc1)C(=O)c1cccc(S(=O)(=O)N2CCN(Cc3ccccc3)CC2)c1`, with > 20 µM (inactive); and `CCCCOCCCNc1ncnc2c1[nH]c1ccccc12`, with > 20 µM (inactive); and `CC1C(OC(=O)CCC(=O)NC(C)(C)CO)O[C@H]2OC3(C)CC[C@H]4[C@H](C)CCC1C24OO3` (stereo partly drawn), with > 20 µM (inactive).

Turning to `CNS(=O)(=O)c1cccc(C(=O)OCC(=O)c2cc(C)n(CC3CCCO3)c2C)c1` (stereo not drawn), the IC50 is > 20 µM (inactive). Consider `Cc1ccc(S(=O)(=O)NCCC2=CCCCC2)cc1C(N)=O`, for which the IC50 was > 20 µM (inactive). The same measure for `Cc1csc2ncnc(NCCc3ccccn3)c12`: > 20 µM (inactive); for `C[C@@H]1COC(=O)[C@@H](NC(=O)OCC2c3ccccc3-c3ccccc32)C/C=C\C[C@@H](CC(=O)N(CCO)Cc2ccccc2)C(=O)N1`: > 20 µM (inactive). Regarding `COc1cc(C(=O)NC2CCN(C)CC2)ccc1Nc1ncc2c(n1)N(CCc1ccccc1)CCC(=O)N2C`, the IC50 is > 20 µM (inactive). The same measure for `Cc1cc(C)c(C)c(S(=O)(=O)N2CCN(c3ncnc4ccccc34)CC2)c1C`: > 20 µM (inactive).
